Patent US20210386069A1 (priority 2018, published 2021)

assay: log P by HPLC on a reversed-phase column (C 18), EEC Directive 79/831 Annex V.A8; assay type: physicochemical; conditions: HPLC reversed-phase C 18, 40° C., 0.1% aqueous formic acid and acetonitrile, linear gradient 10% to 95% acetonitrile
Description: In table 1, the log P values were determined in accordance with EEC Directive 79/831 Annex V.A8 by HPLC (High Performance Liquid Chromatography) on a reversed-phase column (C 18), using the method described below:
temperature: 40° C.; mobile phases: 0.1% aqueous formic acid and acetonitrile; linear gradient from 10% acetonitrile to 95% acetonitrile;
If more than one Log P value is available within the same method, all the values are given and separated by “;”.
Calibration was carried out using unbranched alkan-2-ones (comprising 3 to 16 carbon atoms) with known log P values (determination of the log P values by the retention times using linear interpolation between two successive alkanones). lambda-max-values were determined using UV-spectra from 200 nm to 400 nm and the peak values of the chromatographic signals.

Compound | logP
Cc1nc2c(F)c(F)ccc2cc1Nc1ccccc1-c1cc(F)nc(F)c1 [I.054] | 3.91
COc1ncccc1-c1c(F)cccc1Nc1cc2ccc(F)c(F)c2nc1C [I.076] | 3.70
Cc1nc2c(F)c(F)ccc2cc1Nc1cccc(F)c1-c1ccnnc1 [I.016] | 2.44
Cc1nc2c(F)c(F)ccc2cc1Nc1ccccc1-c1ccnc(F)c1Cl [I.096] | 3.91
CCCc1cnccc1-c1c(F)cccc1Nc1cc2ccc(F)c(F)c2nc1C [I.110] | 2.89
Cc1nc2c(F)c(F)ccc2cc1Nc1ccccc1-c1cc(Cl)cnc1Cl [I.124] | 4.13
Cc1nc2c(F)c(F)ccc2cc1Nc1cccc(F)c1-c1ccnc(F)c1 [I.046] | 3.46
Cc1nc2c(F)c(F)ccc2cc1Cc1cccc(F)c1-c1cncnc1 [I.011] | 2.76
Cc1cncc(-c2ccccc2Nc2cc3ccc(F)c(F)c3nc2C)c1 [I.004] | 1.99
Cc1nc2c(F)c(F)ccc2cc1Nc1cccc(F)c1-c1ccncc1C1CC1 [I.106] | 2.49
Cc1nc2c(F)c(F)ccc2cc1Nc1c(F)cccc1-c1ccncc1F [I.048] | 3.04
Cc1nc2c(F)c(F)ccc2cc1Nc1cccc(F)c1-c1cncnc1 [I.013] | 2.61
Cc1nc2c(F)c(F)ccc2cc1Nc1ccccc1-c1cccnc1Cl [I.038] | 3.43
COc1ccc(-c2c(F)cccc2Nc2cc3ccc(F)c(F)c3nc2C)cn1 [I.077] | 3.71
Cc1nc2c(F)c(F)ccc2nc1Nc1cccc(F)c1-c1ccncc1F [I.056] | 2.98
Cc1nc2ccccc2nc1Nc1cccc(F)c1-c1ccncc1F [I.002] | 2.57
Cc1nc2c(F)c(F)ccc2cc1Nc1ccccc1-c1ccc(Cl)nc1 [I.037] | 3.62
Cc1nc2c(F)c(F)ccc2cc1Nc1cccc(F)c1-c1ccc(C(F)(F)F)nc1 [I.134] | 3.94
Cc1nc2c(F)c(F)ccc2cc1Nc1ccccc1-c1ccnc(F)c1F [I.053] | 3.69
Cc1nc2c(F)c(F)ccc2cc1Nc1ccccc1-c1ccc(F)nc1F [I.055] | 3.81
CCCc1ccncc1-c1ccccc1Nc1cc2ccc(F)c(F)c2nc1C [I.062] | 2.41
Cc1nc2c(F)c(F)ccc2cc1Nc1cccc(F)c1-c1ccncc1F [I.051] | 3.29
COc1nccc(-c2c(F)cccc2Nc2cc3ccc(F)c(F)c3nc2C)c1Cl [I.132] | 4.09
CCc1ccncc1-c1c(F)cccc1Nc1cc2ccc(F)c(F)c2nc1C [I.068] | 2.41
Cc1nc2c(F)c(F)ccc2cc1Nc1ccccc1-c1cc(Cl)cnc1F [I.095] | 4.01
Cc1cc(-c2c(F)cccc2Nc2cc3ccc(F)c(F)c3nc2C)ccn1 [I.033] | 1.88

Compound | logP
CSc1ccc(-c2ccccc2Nc2cc3ccc(F)c(F)c3nc2C)cn1 [I.071] | 3.81
Cc1nc2c(F)c(F)ccc2cc1Nc1cccc(F)c1-c1ccnc(F)c1F [I.101] | 3.81
Cc1cnc(Cl)c(-c2c(F)cccc2Nc2cc3ccc(F)c(F)c3nc2C)c1 [I.118] | 3.75
CCCc1cnccc1-c1ccccc1Nc1cc2ccc(F)c(F)c2nc1C [I.061] | 2.31
Cc1nc2c(F)c(F)ccc2cc1Cc1cccc(F)c1-c1cccnc1F [I.043] | 3.55
COc1cccc(-c2c(F)cccc2Nc2cc3ccc(F)c(F)c3nc2C)n1 [I.080] | 4.55
Cc1nc2c(F)c(F)ccc2cc1Nc1cccc(F)c1-c1ccc(F)nc1F [I.103] | 3.84
Cc1nc2c(F)c(F)ccc2cc1Nc1cccc(F)c1-c1cc(F)cnc1Cl [I.127] | 3.87
Cc1nc2c(F)c(F)ccc2cc1Nc1cccc(F)c1-c1ccncc1 [I.010] | 2.01
Cc1nc2c(F)c(F)ccc2cc1Nc1ccccc1-c1cccc(=O)n1C [I.026] | 2.52
Cc1nc2c(F)c(F)ccc2cc1Nc1cccc(F)c1-c1ccnc(Cl)c1 [I.091] | 3.69
Cc1cc(-c2ccccc2Nc2cc3ccc(F)c(F)c3nc2C)cnc1Cl [I.087] | 3.91
Cc1nc2c(F)c(F)ccc2nc1Cc1cccc(F)c1-c1ccncc1F [I.050] | 3.31
CCc1ccncc1-c1ccccc1Nc1cc2ccc(F)c(F)c2nc1C [I.023] | 2.08
CCOc1ncccc1-c1c(F)cccc1Nc1cc2ccc(F)c(F)c2nc1C [I.113] | 4.13
Cc1nc2c(F)c(F)ccc2cc1Nc1ccccc1-c1cnccc1Cl [I.039] | 3.22
Cc1nc2c(F)c(F)ccc2cc1Nc1cccc(F)c1-c1cccnc1Cl [I.094] | 3.50
Cc1nc2c(F)c(F)ccc2cc1Nc1cccc(F)c1-c1cccnc1C1CC1 [I.105] | 3.25
Cc1nc2c(F)c(F)ccc2cc1Cc1cccc(F)c1C1=CCCCO1 [I.017] | 4.41
Cc1cnc(Cl)c(-c2ccccc2Nc2cc3ccc(F)c(F)c3nc2C)c1 [I.084] | 3.69
Cc1nc2c(F)c(F)ccc2cc1Nc1ccccc1-c1ccncc1C#N [I.021] | 1.41
COc1cnccc1-c1c(F)cccc1Nc1cc2ccc(F)c(F)c2nc1C [I.081] | 2.44
Cc1ccncc1-c1ccccc1Nc1cc2ccc(F)c(F)c2nc1C [I.006] | 1.86
Cc1cc(-c2c(F)cccc2Nc2cc3ccc(F)c(F)c3nc2C)cnc1F [I.089] | 3.75
Cc1nc2c(F)c(F)ccc2cc1Nc1cccc(F)c1-c1cncc(Cl)c1 [I.099] | 3.60

same assay, conditions: reversed-phase HPLC column (C 18); preparation examples; log P as defined in table 1 (HPLC, 0.1% aqueous formic acid/acetonitrile)

Compound | chromatographic logP
Cc1nc2c(F)c(F)ccc2cc1Cc1cscc1Br [3-[(4-bromo-3-thienyl)methyl]-7,8-difluoro-2-methylquinoline] | 4.01
